The values that follow come from patent publication US8633227B2, “Synthesis and novel salt forms of (R)-3-((E)-pyrrolidin-3-yl)vinyl)-5-tetrahydropyran-4-yloxy)pyridine” (priority 2008, dated 2014).

The nature of data set [1]: Preliminary salt screen. Format: physicochemical. To be noted: equi-millimolar base and acid, 2-propanol or acetonitrile, alternative solvents. As for the experimental part:
Test tubes (4 mL), provided with magnetic stir bars, were charged with equi-milimolar amounts of (R)-3-((E)-2-(pyrrolidin-3-yl)vinyl)-5-(tetrahydropyran-4-yloxy)pyridine base and the acid of interest (neat) and dissolved with 500 μL of either 2-propanol or acetonitrile with the aid of heat.
If no precipitation occurred, the solvent was evaporated under a nitrogen stream with moderate heating and an alternative solvent was tried. Alternative solvents included acetone, ethyl acetate, isopropyl acetate, absolute ethanol, acetonitrile, hexane, tert-butanol, tert-butyl acetate, and blends thereof.
The use of alcohols was avoided in the case of sulfonic acids.

Details of data set [2]: species or system human. From the text: Therefore any variation of (R)-3-((E)-2-(pyrrolidin-3-yl)vinyl)-5-(tetrahydropyran-4-yloxy)pyridine or a salt thereof metabolism in human due to CYP polymorphism is expected to be less than 2 fold due to the significant renal clearance and low hepatic clearance.
Data set [3] relates to normal rats. As to the kind of experiment: Novel object recognition (NOR) task. Format: in vivo, rat. To be noted: for NOR time after dosing with statistically significant effect (out to / up to): 0.004 μmol/kg oral (FIG. 2). As for the experimental part: Memory was assessed by using a three-trial novel object recognition test (Luine et al., Pharm. Biochem. Behav. 74, 213-220 (2002)). On the first day (exploratory trial), rats were allowed to explore an open arena (44.5×44.5×30.5 cm) for 6 min. On the second day (acquisition trial), rats were allowed to explore the same arena in the presence of two identical objects (both object A) for 3 min. On the third day (retention or recall trial), performance was evaluated by allowing the same animal to re-explore the arena for 3 min in the presence of two different objects: the familiar object A and a novel object B. An inter-trial interval of 24 h was imposed between the three NOR trials. Recognition memory was assessed by comparing the time spent exploring a novel (object B) versus a familiar (object A) object during the recall trial. Recognition index was assessed for each animal and expressed as a ratio ((time B/time A+time B)×100).
(R)-3-((E)-2-(Pyrrolidin-3-yl)vinyl)-5-(tetrahydropyran-4-yloxy)pyridine or a salt thereof improved long-term visual episodic/declarative memory as assessed by novel object recognition (NOR) task following oral dosing in normal rats. […] In the two “recall only” sessions; subset of animals were orally dosed with water on day 1 (i.e., exploratory session) and day 2 (i.e., acquisition session) and then orally dosed either with 1.1 μmol/kg (R)-3-((E)-2-(pyrrolidin-3-yl)vinyl)-5-(tetrahydropyran-4-yloxy)pyridine or a salt thereof (left panel) or 0.04 μmol/kg (right panel) on day 3 (i.e., recall session). […] In the Figure, the dashed line at 65% denotes subjective criteria for biological cognitive enhancing activity. *P<0.05.
(R)-3-((E)-2-(Pyrrolidin-3-yl)vinyl)-5-(tetrahydropyran-4-yloxy)pyridine or a salt thereof was evaluated for its duration of effect in the NOR task in normal rats. […] In the Figure, the dashed line at 65% denotes subjective criteria for biological cognitive enhancing activity (*P<0.05).

The test system of data set [4] is panel of 65 receptors. Briefly: Multiple receptor screening assay. To be noted: single concentration of 10 μM. Format: binding. How it is done:
(R)-3-((E)-2-(Pyrrolidin-3-yl)vinyl)-5-(tetrahydropyran-4-yloxy)pyridine or a salt thereof was tested for selectivity against a panel of 65 receptors.

Turning to `O=C(O)c1ccc2ccccc2c1O` [1-Hydroxy-2-naphthoic (Xinafoic)], the “Result of preliminary salt screen (physical form obtained)” value (shortened to “Result of preliminary salt screen”) in data set [1] was “brown gum”.

On to `CC(=O)Nc1ccc(C(=O)O)cc1` [4-Acetamidobenzoic], for which the “Result of preliminary salt screen” value in data set [1] was “oil”.

For `O=C(O)c1ccc(O)cc1` [4-Hydroxybenzoic], the “Result of preliminary salt screen” value in data set [1] is reported as “tacky gum”.

Consider `COc1ccc(C(=O)O)cc1` [4-Methoxybenzoic], for which, in data set [1], the “Result of preliminary salt screen” value is “Oil”.

In the case of `CC1(C)[C@@H](C(=O)O)CC[C@@]1(C)C(=O)O` [(1 R,3S)-(+)-Camphoric], in data set [1], the “Result of preliminary salt screen” value is given as “oil”.

As for `CC1(C)[C@@H]2CC[C@@]1(CS(=O)(=O)O)C(=O)C2` [(1 S)-(+)-1 O-Camphorsulfonic], the “Result of preliminary salt screen” value in data set [1] was “oil”.

On to `C(=C\[C@H]1CCNC1)/c1cncc(OC2CCOCC2)c1.O=C(O)C[C@H](O)C(=O)O` [(R)-3-((E)-2-(pyrrolidin-3-yl)vinyl)-5-(tetrahydropyran-4-yloxy)pyridine mono-L-malate], for which the “Result of preliminary salt screen” value in data set [1] is “Crystals”.

Turning to `O=C(O)CCCCC(=O)O` [Adipic], the “Result of preliminary salt screen” value in data set [1] was “oil”.

Take `O=C(O)CC(O)(CC(=O)O)C(=O)O` [Citric]: the “Result of preliminary salt screen” value in data set [1] was “tacky gum”.

Consider `C(=C\[C@H]1CCNC1)/c1cncc(OC2CCOCC2)c1` [Compound A, (R)-3-((E)-2-(pyrrolidin-3-yl)vinyl)-5-(tetrahydropyran-4-yloxy)pyridine], for which the “variation of metabolism due to CYP polymorphism” value in data set [2] is listed as “less than 2 fold”. In addition, in data set [2] (human), the “renal clearance contribution to total clearance” value is given as “more than 50%”. In addition, the “NOR time after dosing with statistically significant effect (out to / up to)” value in data set [3] is recorded as ≤ 8 h; in data set [3] (listed as (R)-3-((E)-2-(pyrrolidin-3-yl)vinyl)-5-(tetrahydropyran-4-yloxy)pyridine) it was “up to 8 h”; in data set [3] (listed as Formula I) it was ≤ 8 h. Also, in data set [3] (FIG. 1), the “NOR doses with statistically significant effect (as low as)” value is ≥ 0.004 µM/kg. Further, the “NOR minimum effect dose (MED) level” value in data set [3] (follow-up NOR study, oral, rats) is 0.004 µmol/kg. In addition, the “NOR recognition index, recall only sessions” value in data set [3] (single oral administration on day 3, 1.1 μmol/kg or 0.04 μmol/kg) is “recognition indexes significantly above controls”. Moreover, the entries for the “Multiple receptor screening assay, receptors hit” value in data set [4] and in data set [4] (listed as (R)-3-(2-(pyrrolidin-3-yl)vinyl)-5-((tetrahydro-2H-pyran-4-yl)oxy)pyridine) were “only to neuronal nicotinic receptors” and “Only nicotinic”, respectively.

As for `O=C[C@H](O)[C@@H](O)[C@H](O)[C@H](O)C(=O)O` [D-glucuronic], the “Result of preliminary salt screen” value in data set [1] is listed as “brown gum”.

As for `Cl` [Hydrochloric], the “Result of preliminary salt screen” value in data set [1] was “red oil”.

In the case of `O=C(O)/C=C\C(=O)O` [Maleic], in data set [1], the “Result of preliminary salt screen” value was “Oil”.

With `O=C(O)CC(=O)O` [Malonic], the “Result of preliminary salt screen” value in data set [1] is “Oil”.

As for `CS(=O)(=O)O` [Methanesulfonic], in data set [1], the “Result of preliminary salt screen” value is on record as “Oil”.

Consider `O=C(O)CCC(=O)O` [Succinic], for which the “Result of preliminary salt screen” value in data set [1] is “red oil”.

With `Cc1ccc(S(=O)(=O)O)cc1.O` [p-Toluenesulfonic.H20], the “Result of preliminary salt screen” value in data set [1] is recorded as “Oil”.

Regarding Fumaric, the “Result of preliminary salt screen” value in data set [1] is given as “oil”.

Take L-Tartaric: the “Result of preliminary salt screen” value in data set [1] is reported as “Oil”.
